# Measurements from paper PMC8533149 (Biomolecules, 2021).
# Like-named read-outs stand apart in the source and are kept apart here.
# Legend:
# [1] = test system: Telo (DNA, G4) AGGGTTAGGGTTAGGGTTAGGG; assay: FRET melting; conditions: 100 mM KCl; 10 mM lithium cacodylate pH 7.4, 0.25% DMSO; 12.5 μM compound, 0.25 μM DNA (50:1)
# [2] = test system: dsDNA (DNA, duplex) CTATAGCGCGCTATAG; assay: FRET melting; conditions: 100 mM KCl; 10 mM lithium cacodylate pH 7.4, 0.25% DMSO; 12.5 μM compound, 0.25 μM DNA (50:1)
# [3] = test system: HIV-1 LTR-III G-quadruplex (FAM/TAMRA-labeled LTR-III); assay: FRET melting assay, LTR-III G4; format: binding; conditions: for LTR-III ΔTm: Table S1 primary screening, ligand:ODN 50:1, singlicate
# Procedure, shortened: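 Melting is followed by FAM fluorescence (ex 495/em 520 nm) while heating at 1 °C/min from 30 to 95 °C. Labelled ODN at 0.5 μM, pre-annealed in 10 mM Li cacodylate, 100 mM KCl, pH 7.4, mixed with ligand at 50:1 (25 μM), or 20:1 and 2:1 for titration. ΔTm is relative to the 0.25% DMSO buffer control.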
# LTR-III G4 = assay: NMR titration of LTR-III; format: binding, HIV-1; conditions: for interaction with LTR-III by NMR titration (selective signal attenuation): 50 μM LTR-III, 1D 1H NMR
# Experimental: All NMR spectra were acquired on a Bruker Avance III 800 MHz spectrometer equipped with a cryoprobe. Titration of 50 μM LTR-III samples (70 mM KCl, 20 mM potassium phosphate buffer, pH 7.0) with 2 mM ZS260.1 and N979 ligands dissolved in DMSO was performed. 1D ^1H NMR spectra were used to track the changes during titration. ^1H-^13C HSQC and HMBC at 35 °C were used to transfer the assignment of H6/C6 and H8/C8 signals from previously obtained assignment. To identify the LTR-III residues that are most influenced by addition of ZS260.1 ligand, the intensities of cross-peaks in the ^1H-^13C HSQC spectra measured with and without added ligand were compared. The H6/C6 and H8/C8 cross-peak intensities were measured at molar ratio of LTR-III to ZS260.1 of 5:1 (35 °C, 0.5 mM LTR-III G4).
# The ligand binding processes are probably in intermediate to fast regime on the NMR timescale. Therefore, the resonances of residues that are close to the ligand binding site (s) become broadened and attenuated (intermediate exchange regime).
# To determine affinity of the compound ZS260.1 to LTR-III G4 we analyzed changes in H8 chemical shift of G8 residue in 1D ^1H NMR spectra. […] The titration data were successfully approximated by simple chemical reaction A + B = AB, that implies one to one stoichiometry of binding that is consistent with literature data (Suppl. S8). The dissociation constant for the LTR-III/ZS260.1 complex (Kd) was on the order of 3 μM.
# [4] = test system: human telomeric sequence Telo G4; assay: FRET melting assay, Telo; format: binding; conditions: Table S2, primary screening lead compounds, 50:1
# Experimental: (§1) To evaluate stabilizing properties of the ligands in a complex with oligodeoxyribonucleotides (ODNs) melting with fluorescence registration was used. ODN (0.5 μM) (Table 1), labeled with 6-carboxyfluorescein (FAM) and 6-carboxytetramethylrhodamine (TAMRA) at the 5′- and 3′-end, respectively, were folded in lithium cacodylate buffer (10 mM, pH 7.4) with 100 mM KCl by heating at 95 °C for 5 min and gradually cooling to r.t. GFP chromophore analogs (5 mM solution in DMSO) were diluted with the same buffer to the final concentration of 25 μM and mixed with an equal volume of 0.5 μM ODN solution resulting in a molar ratio of 50:1 (total volume was 50 μL). For the titration experiments molar ratios of 20:1 and 2:1 were used. Samples were analyzed using DTprime qPCR system (DNA-Technology LLC, Moscow, Russia). Fluorescence was registered by detection of FAM emission at 520 nm upon excitation at 495 nm in the temperature range of 30–95 °C with 1 °C/min gradient. Tm was determined using the instrument software and ΔTm was calculated relative to ODN Tm in a buffer solution containing 0.25% (v/v) DMSO. The primary and secondary screening were carried out in singlicate and triplicate, respectively.
# (§2) Initially we screened an in-house library of 440 synthetic GFP chromophore analogues for interaction with HIV-1 LTR-III sequence, which modulates HIV-1 promoter activity, using high-throughput screening (HTS) FRET melting assay (Table S1). […] We selected 11 compounds (Figure 2A), displaying stabilization in the range of 2.4–7.8 °C, and evaluated their ability to stabilize other G4-forming sequences, including human telomeric sequence Telo (one of the most common G4 structures in the human genome, having two conformations, Hybrid-1 and Hybrid-2 [36]) and model G4 […] (the G-rich Pu39 region of the P1 promoter of the oncogene BCL-2, an apoptosis regulator [37] with polymorphic conformational structure), as well as double stranded oligonucleotide (duplex) control sequence (Figure 2B, Table S2).
# [5] = test system: Pu39 G4 (G-rich region of the P1 promoter of BCL-2); assay: FRET melting assay, Pu39; format: binding, human; conditions: Table S2, primary screening lead compounds, 50:1
# Experimental: as §1, §2
# [6] = test system: dsDNA (double stranded control sequence); assay: FRET melting assay, duplex control; format: binding; conditions: Table S2, primary screening lead compounds, 50:1
# Experimental: as §1, §2
# Cytotoxicity test = format: cell-based; conditions: human, MT4 cells (human T cell leukemia), Figure 7
# Experimental: (§3) Green monkey kidney (Vero, Beach, FL, USA) cell line was maintained in 2 × Eagle MEM (“Chumakov FSC R&D IBP RAS”, Russia) with 5% FBS with L-glutamine, penicillin and streptomycin. […] HIV-1 strain NL4-3 was obtained via cell transfection with pNL4-3 3 (ARP2006, NIBSC, Potters Bar, UK).
# (§4) MT4 cell suspensions were added to the wells with compound dilutions and DMSO control (approx. 2 × 10^4 cells per well). […] All experimental procedures were performed in two replicates and were repeated two to four times. Mean and SD were calculated with OriginPro 8 (OriginLab, St. Louis, MO, USA).
# MT4 cells = assay: Cytotoxicity test; format: cell-based; conditions: Table S12, nine days
# Experimental: as §3, §4
# [7] = test system: HIV-1 strain NL4-3 in MT4 cells; assay: Cytopathic effect inhibition test; format: cell-based; conditions: HIV-1 NL4-3, MT4 cells
# Experimental: Human T cell leukemia (MT4) cell line was maintained in RPMI-1640 (“Chumakov FSC R&D IBP RAS”, Moscow, Russia) with 10% of fetal bovine serum (FBS, Invitrogen, Waltham, MA, USA), L-glutamine and gentamicin. Green monkey kidney (Vero, Beach, FL, USA) cell line was maintained in 2 × Eagle MEM (“Chumakov FSC R&D IBP RAS”, Russia) with 5% FBS with L-glutamine, penicillin and streptomycin. Cell cultures were incubated in the present of 5% CO2 at 37 °C. HIV-1 strain NL4-3 was obtained via cell transfection with pNL4-3 3 (ARP2006, NIBSC, Potters Bar, UK).
# Eight two-fold dilutions of stock solutions of the compounds in two replicates were prepared in RPMI-1640 (“Chumakov FSC R&D IBP RAS”, Russia). Compound dilutions were mixed with equal volumes of the virus suspension containing 100 CCID50 (50% tissue culture infectious dose). Control cells were treated with the same sequential concentrations of DMSO as in compound dilutions. Then, the MT4 cell suspension (approx. 2 × 10^4 cells per well) in RPMI-1640 containing 10% FBS (Invitrogen, South America) was added to experimental mixtures. A final concentration series started from 25 μM. Each experiment contained virus dose titration in the inoculate to assure the acceptable dose-range. After a nine-day incubation (5% CO2, at 37 °C), cytopathic effect (CPE) was visually accessed via microscope. EC50 values were calculated according to the Karber method. All experimental procedures were performed in two replicates and were repeated two to four times. Mean and SD were calculated with OriginPro 8 (OriginLab, St. Louis, MO, USA).
SMILES,ΔTm [1],ΔTm [2],LTR-III ΔTm [3],LTR-III ΔTm ([3]; listed as N979),interaction with LTR-III by NMR titration (selective signal attenuation) (LTR-III G4),"LTR III stabilization ([3]; Figure 7, stabilization group)","LTR-III (average) ([3]; Table S12, average stabilization)",ΔTm Telo [4],ΔTm Pu39 [5],ΔTm Duplex [6],"Kd (LTR-III G4; H8 chemical shift of G8 in 1D 1H NMR, 1:1 binding model, read-out: dissociation constant for the LTR-III/ZS260.1 complex (Kd))",CC50 at 9 days (Cytotoxicity test),СС50 (MT4) (MT4 cells),"EC50 ([7]; Human immunodeficiency virus 1, NL43, 216 h, Table S12, CPE, nine-day incubation, read-out: EC50)","EC50 ([7]; Human immunodeficiency virus 1, NL43, Figure 7, read-out: Antiviral activity EC50 (HIV))","EC50 ([7]; Table S12, CPE, nine-day incubation)"
COc1ccc(/C=C/C=C/C2=NC(=C\c3ccc(O)cc3OC)/C(=O)N2C)cc1,3.9±0.1 °C,-0.1±0.04 °C,–,–,–,–,–,–,–,–,–,–,–,–,–,–
COc1cc(/C=C2\N=C(C)N(C)C2=O)cc(OC)c1O [N 979],–,–,-0.2 °C,non-stabilizing,interact with the LTR-III molecule,–,–,–,–,–,–,–,–,–,–,–
COc1cc(/C=C2N=C(/C=C/c3cc(Br)c(O)c(Br)c3)N(C)C\2=O)cc(OC)c1O [ZS 260.1],0.7±0.2 °C,0.1±0.09 °C,7.8 °C,–,interact with the LTR-III molecule,> 3 °C,"8,35 °C",0.7±0.2 °C,0.9±0.6 °C,0.1±0.09 °C,~3 µM,4.1 ± 0.6 µM,4.1 ± 0.6 µM,3.78 ± 0.91 µM,3.8 ± 0.9 µM,micromolar range
